In PMC11048482 (Biomolecules, 2024):
Like-named read-outs stand apart in the source and are kept apart here.

Molecular target: T1, SP_0166 (Streptococcus pneumoniae, UniProt A0A0H2UNA7)
T1 construct: full length, 368 residues, 42,757 Da; pET-28a(+) BamHI/XhoI, C-terminal 6xHis tag kept; expressed in E. coli BL21(DE3)
Test: LC-MS/MS of agmatine formed from arginine
Format: biochemical

T1 sequence (A0A0H2UNA7 entry or part of it): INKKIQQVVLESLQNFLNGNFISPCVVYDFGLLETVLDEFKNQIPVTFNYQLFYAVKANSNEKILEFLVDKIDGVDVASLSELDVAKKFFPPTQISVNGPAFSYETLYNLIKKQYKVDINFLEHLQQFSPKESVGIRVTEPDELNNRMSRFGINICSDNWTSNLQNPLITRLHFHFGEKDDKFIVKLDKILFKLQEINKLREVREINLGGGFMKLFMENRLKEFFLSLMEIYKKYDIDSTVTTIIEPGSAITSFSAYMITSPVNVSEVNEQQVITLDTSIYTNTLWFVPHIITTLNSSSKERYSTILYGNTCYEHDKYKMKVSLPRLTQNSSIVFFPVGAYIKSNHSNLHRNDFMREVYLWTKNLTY

| Structure (SMILES) | IC50 (read-out: DFMA IC50) [mM] | IC50 (read-out: DFMO IC50) [mM] |
| --- | --- | --- |
| N=C(N)NCCCC(N)(C(=O)O)C(F)F (centres unmarked) [DFMA] | 0.0216 ± 0.0104 | – |
| NCCCC(N)(C(=O)O)C(F)F (centres unmarked) [DFMO] | – | 27 ± 4.5 |
